According to patent publication US20070197602A1, “Combined pharmaceutical composition” (priority 2004, published 2007):

Test system: streptozotocin-induced diabetic model
Assay: Test Example 3: sucrose loading in streptozotocin-induced diabetic model, plasma glucose (GLU)
Assay type: in vivo, rat
Conditions: STZ rats; for GLU concentration before loading: Day 23, after oral once a day for 9 days, plasma glucose; for GLU concentration before loading / GLU concentration after loading / Rate of Change (GLU concentration after loading relative to before loading): metformin 50 mg/kg, voglibose 0.2 mg/kg, fenofibrate 50 mg/kg; for GLU concentration after loading: Day 24, 60 minutes after sucrose 2.5 g/kg oral given immediately after test article; for blood sugar level change by the sucrose loading (in words) / Rate of Change (GLU concentration after loading relative to before loading): sucrose loading 2.5 g/kg; for blood sugar level change by the sucrose loading (in words): STZ-treated control increased about 20%
Method: At 13 days after administration (Day 13), blood was collected from the rats, and plasma glucose (GLU) concentration was measured. […] From Day 14 (14 days after STZ administration), test articles shown in Table 1 were orally administered to the rats once a day for 9 days. At 23 days after STZ administration (Day 23), the GLU concentration was measured (previous value: GLU concentration before sucrose loading) (incidentally, the test articles were not administered on Day 23). […] Moreover, “N” represents the number of rats for determining the GLU concentration in the Table.

SMILES | GLU concentration before loading [g/L] | GLU concentration after loading [g/L] | blood sugar level change by the sucrose loading (in words) | Rate of Change (GLU concentration after loading relative to before loading) [%]
OCC(CO)N[C@H]1C[C@](O)(CO)[C@@H](O)[C@H](O)[C@H]1O [Voglibose] | 4.30 ± 0.47 | 4.50 ± 0.42 | inhibited | 104.7
CC(C)OC(=O)C(C)(C)Oc1ccc(C(=O)c2ccc(Cl)cc2)cc1 [Fenofibrate] | 4.26 ± 0.55 | 4.78 ± 0.34 | – | –
CN(C)C(=N)N=C(N)N [Metformin] | 4.57 ± 0.36 | 5.41 ± 0.38 | increased | 118.4
